pIC50: −log10 of the molar value.
Columns and labels:
[1] = biological target: Acetylcholinesterase (Electrophorus electricus, UniProt O42275)
Description: Inhibition of electric eel AChE by Ellman's method

[2] = biological target: Butyrylcholinesterase (Equus caballus, UniProt Q9N1N9)
Description: Inhibition of equine BChE by Ellman's method

[3] = Inhibition of amyloid beta (1-42) self-mediated aggregation at 20 uM by thioflavin T fluorescence method

Sequence of Acetylcholinesterase (O42275 whole entry): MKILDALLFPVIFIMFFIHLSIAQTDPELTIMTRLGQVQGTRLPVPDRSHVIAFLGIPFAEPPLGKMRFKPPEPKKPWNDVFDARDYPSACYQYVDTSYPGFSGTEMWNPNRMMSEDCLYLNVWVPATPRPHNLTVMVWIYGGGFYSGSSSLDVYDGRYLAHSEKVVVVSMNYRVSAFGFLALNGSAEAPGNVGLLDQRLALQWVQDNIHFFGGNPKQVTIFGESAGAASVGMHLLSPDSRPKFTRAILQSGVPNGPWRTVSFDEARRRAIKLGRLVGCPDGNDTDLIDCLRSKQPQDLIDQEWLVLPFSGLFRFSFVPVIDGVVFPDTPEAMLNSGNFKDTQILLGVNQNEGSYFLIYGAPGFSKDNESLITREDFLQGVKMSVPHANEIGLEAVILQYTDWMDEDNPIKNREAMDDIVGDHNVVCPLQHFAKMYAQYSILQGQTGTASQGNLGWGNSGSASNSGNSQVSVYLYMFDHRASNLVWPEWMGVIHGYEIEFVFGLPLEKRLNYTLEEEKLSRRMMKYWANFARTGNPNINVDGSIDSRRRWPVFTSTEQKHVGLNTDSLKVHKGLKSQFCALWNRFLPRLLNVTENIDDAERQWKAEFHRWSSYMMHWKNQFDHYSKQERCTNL
Sequence of Butyrylcholinesterase (Q9N1N9 whole entry): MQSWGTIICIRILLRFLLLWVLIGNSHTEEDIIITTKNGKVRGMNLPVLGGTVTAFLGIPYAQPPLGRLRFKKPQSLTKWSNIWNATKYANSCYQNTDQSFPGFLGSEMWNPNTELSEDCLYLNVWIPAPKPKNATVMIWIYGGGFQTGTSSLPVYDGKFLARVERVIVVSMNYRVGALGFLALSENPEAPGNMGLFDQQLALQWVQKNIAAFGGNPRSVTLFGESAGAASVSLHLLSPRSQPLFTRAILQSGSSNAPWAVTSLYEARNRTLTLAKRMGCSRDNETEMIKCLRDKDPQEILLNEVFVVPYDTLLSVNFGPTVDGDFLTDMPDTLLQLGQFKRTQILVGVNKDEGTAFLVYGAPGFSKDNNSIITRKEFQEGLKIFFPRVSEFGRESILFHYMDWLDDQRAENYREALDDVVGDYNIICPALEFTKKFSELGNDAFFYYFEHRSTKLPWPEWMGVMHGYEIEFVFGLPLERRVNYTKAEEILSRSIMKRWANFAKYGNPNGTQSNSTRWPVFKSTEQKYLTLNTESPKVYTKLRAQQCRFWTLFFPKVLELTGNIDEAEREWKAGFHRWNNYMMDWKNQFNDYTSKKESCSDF

Compound | pIC50 [1] | pIC50 [2] | inhibition [3]
COc1ccc(CNCCCCCCCCNc2c3c(nc4ccccc24)CCCC3)cc1OC | 7.95 | 8.25 | 
COc1cc(CNCCCCCCCCCNc2c3c(nc4ccccc24)CCCC3)cc2c1OCO2 | 7.73 | 7.94 | 68.5%
COc1cc(CNCCCCCCCCNc2c3c(nc4ccccc24)CCCC3)cc2c1OCO2 | 8.10 | 8.10 | 65.2%
COc1ccc(CNCCCCCCNc2c3c(nc4ccccc24)CCCC3)cc1OC | 7.51 | 8.57 | 
COc1cc(CNCCCCCCNc2c3c(nc4ccccc24)CCCC3)cc(OC)c1OC | 7.65 | 8.59 | 
COc1cc(CNCCCCCCCNc2c3c(nc4ccccc24)CCCC3)cc2c1OCO2 | 7.73 | 8.01 | 65%
COc1cc(CNCCCCCCCNc2c3c(nc4ccccc24)CCCC3)cc(OC)c1OC | 7.76 | 8.45 | 
COc1ccc(CNCCCCCCCNc2c3c(nc4ccccc24)CCCC3)cc1OC | 7.62 | 8.26 | 
COc1cc(CNCCCCNc2c3c(nc4ccccc24)CCCC3)cc2c1OCO2 | 6.95 | 7.33 | 63.8%
COc1cc(CNCCCCCCCCNc2c3c(nc4ccccc24)CCCC3)cc(OC)c1OC | 8.01 | 8.47 | 
COc1cc(CNCCCCCCCCCNc2c3c(nc4ccccc24)CCCC3)cc(OC)c1OC | 7.69 | 8.33 | 
COc1cc(CNCCCCCCNc2c3c(nc4ccccc24)CCCC3)cc2c1OCO2 | 7.69 | 8.28 | 67.1%
COc1cc(CNCCCCCNc2c3c(nc4ccccc24)CCCC3)cc2c1OCO2 | 7.10 | 7.53 | 63.1%
COc1ccc(CNCCCCCCCCCNc2c3c(nc4ccccc24)CCCC3)cc1OC | 7.60 | 8.25 | 

Source: ChEMBL document CHEMBL1641506, “Design, synthesis and evaluation of novel tacrine-multialkoxybenzene hybrids as dual inhibitors for cholinesterases and amyloid beta aggregation” (Bioorg Med Chem, 2011)
